Test results published in ChEMBL document CHEMBL5154760, “Metabolism guided optimization of peptidomimetics as non-covalent proteasome inhibitors for cancer treatment” (Eur J Med Chem, 2022).
Active and inactive are the calls of the source. No cut-off for these calls is given here.

Legend:
[1] = molecular target: 20S proteasome; assay: Inhibition of chymotrypsin-like activity of human 20S proteasome using Suc-Leu Leu-Val-Tyr-AMC as substrate preincubated for 15 mins followed by substrate addition measured by fluorescence assay; assay type: protein-complex assay
[2] = test system: RPMI-8226; assay: Antiproliferative activity against human RPMI-8226 cells after 72 hrs by MTS assay; assay type: functional, cell-based; details: RPMI-8226, 72 h
[3] = test system: MM1.S; assay: Antiproliferative activity against human MM1.S cells after 72 hrs by MTS assay; assay type: functional, cell-based
[4] = In vivo inhibition of chymotrypsin-like activity of 20S proteasome in ICR mouse at 5 mg/kg, iv; assay type: functional
[5] = test system: MV4-11; assay: Antiproliferative activity against human MV4-11 cells after 72 hrs by MTS assay; assay type: functional, cell-based; details: MV4-11, 72 h
[6] = molecular target: 20S proteasome (Homo sapiens) (UniProt P49721+P20618+P28074+P28062+P28065+P28072+P25786+P25787+P25788+P25789+P28066+P60900+O14818+Q8TAA3+P40306+A5LHX3+P49720+P28070+Q99436); assay: Inhibition of chymotrypsin-like activity of 20S proteasome in human MM1.S cells assessed as accumulation of polyubiquitinated proteins at 10 to 1000 nM and measured by Western blot analysis; assay type: cell-based; details: dose 10-1000 nM
[7] = Stability of the compound in mouse blood assessed as half-life measured by LC-MS/MS analysis; assay type: ADME, tissue-based

| IC50 [1] [nM] | IC50 [2] [nM] | IC50 [3] [nM] | IC50 [5] [nM] | SMILES | other results |
| --- | --- | --- | --- | --- | --- |
| 4480 |  |  |  | CC(C)(C)CNC(=O)C[C@H](NC(=O)N1CCC(C(=O)Nc2cccnc2)CC1)C(=O)N[C@@H](CCc1ccccc1)C(=O)N[C@H]1CCCc2ccccc21 |  |
| 8.39 | 15.3 | 9.07 | 2.46 | CCN(C(=O)C1CCN(C(=O)N[C@@H](CC(=O)NCC(C)(C)C)C(=O)N[C@@H](CCc2ccccc2)C(=O)N[C@@H]2CCCc3ccccc32)CC1)c1ccccc1 | inhibition in vivo at 5 mg/kg [4]: 50%; inhibition [6]: Active; half-life [7]: 5.49 h |
| > 10000 |  |  |  | C[C@@H](c1ccccc1)N(C)C(=O)[C@H](CCc1ccccc1)NC(=O)[C@H](CC(=O)NCC(C)(C)C)NC(=O)N1CCC(C(=O)Nc2cccnc2)CC1 |  |
| 21.6 |  |  |  | CN(C(=O)C1CCN(C(=O)N[C@@H](CC(=O)NCC(C)(C)C)C(=O)N[C@@H](CCc2ccccc2)C(=O)N[C@@H]2CCCc3ccccc32)CC1)c1ccccc1Cl |  |
| 9.38 | 26.2 | 17.7 | 4.87 | CN(C(=O)C1CCN(C(=O)N[C@@H](CC(=O)NCC(C)(C)C)C(=O)N[C@@H](CCc2ccccc2)C(=O)N[C@@H]2CCCc3ccccc32)CC1)c1ccc(F)cc1 |  |
| 23.7 |  |  |  | CC(C)(C)CNC(=O)C[C@H](NC(=O)N1CCN(C(=O)Nc2ccc(Cl)cc2)CC1)C(=O)N[C@@H](CCc1ccccc1)C(=O)N[C@@H]1CCCc2ccccc21 |  |
| > 10000 |  |  |  | CN(C(=O)C1CCN(C(=O)N[C@@H](CC(=O)NCC(C)(C)C)C(=O)N[C@@H](CCc2ccccc2)C(=O)N[C@H]2CCCc3ccccc32)CC1)c1cccnc1 |  |
| 7.24 | 19.9 | 16.9 | 4.6 | CC(C)(C)CNC(=O)C[C@H](NC(=O)N1CCC(C(=O)N2CCc3ccccc32)CC1)C(=O)N[C@@H](CCc1ccccc1)C(=O)N[C@@H]1CCCc2ccccc21 |  |
| > 10000 |  |  |  | C[C@H](NC(=O)[C@H](CCc1ccccc1)NC(=O)[C@H](CC(=O)NCC(C)(C)C)NC(=O)N1CCC(C(=O)Nc2cccnc2)CC1)c1ccccc1 |  |
| > 10000 |  |  |  | CN(Cc1ccccc1Cl)C(=O)[C@H](CCc1ccccc1)NC(=O)[C@H](CC(=O)NCC(C)(C)C)NC(=O)N1CCC(C(=O)N(C)c2cccnc2)CC1 |  |
|  | 6.35 | 9.15 | 0.983 | CC(C)C[C@H](NC(=O)[C@H](CCc1ccccc1)NC(=O)CN1CCOCC1)C(=O)N[C@@H](Cc1ccccc1)C(=O)N[C@@H](CC(C)C)C(=O)[C@]1(C)CO1 |  |
| 22.6 |  |  |  | CN(C(=O)C1CCN(C(=O)N[C@@H](CC(=O)NCC(C)(C)C)C(=O)N[C@@H](CCc2ccccc2)C(=O)N[C@@H]2CCCc3ccccc32)CC1)c1cccc(Cl)c1 |  |
| 8.09 | 24 | 12.4 | 4.93 | CC(C)(C)CNC(=O)C[C@H](NC(=O)N1CCC(C(=O)N2CCCc3ccccc32)CC1)C(=O)N[C@@H](CCc1ccccc1)C(=O)N[C@@H]1CCCc2ccccc21 |  |
| > 10000 |  |  |  | C[C@@H](c1ccccc1)N(C)C(=O)[C@H](CCc1ccccc1)NC(=O)[C@H](CC(=O)NCC(C)(C)C)NC(=O)N1CCC(C(=O)N(C)c2cccnc2)CC1 |  |
| 41.2 |  |  |  | CC(C)(C)CNC(=O)C[C@H](NC(=O)N1CCC(NC(=O)Nc2ccc(Cl)cc2)CC1)C(=O)N[C@@H](CCc1ccccc1)C(=O)N[C@@H]1CCCc2ccccc21 |  |
| 25 |  |  |  | CC(C)(C)CNC(=O)C[C@H](NC(=O)N1CCN(C(=O)c2cccnc2)CC1)C(=O)N[C@@H](CCc1ccccc1)C(=O)N[C@@H]1CCCc2ccccc21 |  |
| 0.92 |  |  |  | CC(C)(C)CNC(=O)C[C@H](NC(=O)N1CCC(C(=O)Nc2nccs2)CC1)C(=O)N[C@@H](CCc1ccccc1)C(=O)NCc1ccccc1Cl | half-life [7]: 0.613 h |

| IC50 [1] [nM] | IC50 [2] [nM] | IC50 [3] [nM] | IC50 [5] [nM] | SMILES | other results |
| --- | --- | --- | --- | --- | --- |
| 9.26 | > 100 | 84 | 51.7 | CN(C(=O)C1CCN(C(=O)N[C@@H](CC(=O)NCC(C)(C)C)C(=O)N[C@@H](CCc2ccccc2)C(=O)N[C@@H]2CCCc3ccccc32)CC1)c1ccncc1 |  |
| 20.3 |  |  |  | C[C@@H](NC(=O)[C@H](CCc1ccccc1)NC(=O)[C@H](CC(=O)NCC(C)(C)C)NC(=O)N1CCC(C(=O)Nc2cccnc2)CC1)c1ccccc1 |  |
| 1740 |  |  |  | CN(Cc1ccccc1Cl)C(=O)[C@H](CCc1ccccc1)NC(=O)[C@H](CC(=O)NCC(C)(C)C)NC(=O)N1CCC(C(=O)Nc2cccnc2)CC1 |  |
| > 10000 |  |  |  | CN(C(=O)C1CCN(C(=O)N[C@@H](CC(=O)NCC(C)(C)C)C(=O)N[C@@H](CCc2ccccc2)C(=O)N2CCc3ccccc3C2)CC1)c1cccnc1 |  |
| 4.03 | 40.7 | 35.1 | 6.83 | CC(C)(C)CNC(=O)C[C@H](NC(=O)N1CCC(C(=O)Nc2cccnc2)CC1)C(=O)N[C@@H](CCc1ccccc1)C(=O)N[C@@H]1CCCc2ccccc21 |  |
| > 10000 |  |  |  | C[C@H](c1ccccc1)N(C)C(=O)[C@H](CCc1ccccc1)NC(=O)[C@H](CC(=O)NCC(C)(C)C)NC(=O)N1CCC(C(=O)N(C)c2cccnc2)CC1 |  |
| 8.92 | 33.7 | 20.6 | 4.85 | CN(C(=O)C1CCN(C(=O)N[C@@H](CC(=O)NCC(C)(C)C)C(=O)N[C@@H](CCc2ccccc2)C(=O)N[C@@H]2CCCc3ccccc32)CC1)c1ccccn1 |  |
| > 10000 |  |  |  | C[C@H](NC(=O)[C@H](CCc1ccccc1)NC(=O)[C@H](CC(=O)NCC(C)(C)C)NC(=O)N1CCC(C(=O)N(C)c2cccnc2)CC1)c1ccccc1 |  |
| 9.31 | 20.7 | 8.82 | 2.74 | CN(C(=O)C1CCN(C(=O)N[C@@H](CC(=O)NCC(C)(C)C)C(=O)N[C@@H](CCc2ccccc2)C(=O)N[C@@H]2CCCc3ccccc32)CC1)c1ccccc1 | inhibition [6]: Active; half-life [7]: 2.46 h |
| 1590 |  |  |  | CC(C)(C)CNC(=O)C[C@H](NC(=O)N1CCC(C(=O)Nc2cccnc2)CC1)C(=O)N[C@@H](CCc1ccccc1)C(=O)N1CCc2ccccc2C1 |  |
| 6.95 | 20.8 | 26.9 | 4.06 | CN(C(=O)C1CCN(C(=O)N[C@@H](CC(=O)NCC(C)(C)C)C(=O)N[C@@H](CCc2ccccc2)C(=O)N[C@@H]2CCCc3ccccc32)CC1)c1ccc(Cl)cc1 |  |
| > 10000 |  |  |  | CC(C)(C)CNC(=O)C[C@H](NC(=O)N1CCC(C(=O)Nc2cnccn2)CC1)C(=O)N[C@@H](CCc1ccccc1)C(=O)N1CCc2ccccc2C1 |  |
| 25 |  |  |  | COc1ccc(N(C)C(=O)C2CCN(C(=O)N[C@@H](CC(=O)NCC(C)(C)C)C(=O)N[C@@H](CCc3ccccc3)C(=O)N[C@@H]3CCCc4ccccc43)CC2)cc1 |  |
| 99.8 |  |  |  | C[C@@H](NC(=O)[C@H](CCc1ccccc1)NC(=O)[C@H](CC(=O)NCC(C)(C)C)NC(=O)N1CCC(C(=O)N(C)c2cccnc2)CC1)c1ccccc1 |  |
| 8.59 | 81.7 | 54.2 | 12 | CN(C(=O)C1CCN(C(=O)N[C@@H](CC(=O)NCC(C)(C)C)C(=O)N[C@@H](CCc2ccccc2)C(=O)N[C@@H]2CCCc3ccccc32)CC1)c1cccnc1 |  |
| 5.15 | 60.4 | 33.5 | 7.65 | CN(C(=O)c1cccnc1)C1CCN(C(=O)N[C@@H](CC(=O)NCC(C)(C)C)C(=O)N[C@@H](CCc2ccccc2)C(=O)N[C@@H]2CCCc3ccccc32)CC1 |  |
| 3.43 | 12.1 | 8.36 | 1.57 | CN(C(=O)C1CCN(C(=O)N[C@@H](CC(=O)NCC(C)(C)C)C(=O)N[C@@H](CCc2ccccc2)C(=O)N[C@@H]2CCCc3ccccc32)CC1)c1nccs1 | inhibition in vivo at 5 mg/kg [4]: 50%; inhibition [6]: Active; half-life [7]: 1.4 h |
